From patent US5208135A, “Preparation and use of dyes” (Minnesota Mining and Manufacturing Company, priority 1990, dated 1993)

Experiments:
[1] = Absorption maximum and optical density of dye; assay type: physicochemical; conditions: for λmax: Table 1
Method: The solution was coated using K-bar 3 onto unsubbed 0.01 cm PET base and the resulting coating dried for 1 hour at 30° C. ("K-bars" are wire wound coating rods manufactured by R.K. Print-Coat Instrument Ltd.) The dried coating was topcoated with an aqueous solution of poly(vinyl alcohol) (8%) containing Tergitol TMN-10, commercially available from Union Carbide, using K-Bar 8 (10 ml 8% poly(vinyl alcohol) containing 1 ml 10% Tergitol TMN-10). The top coating was dried for 12 hours at 30° C. to provide a PVA oxygen-impermeable barrier layer over the photopolymer layer. The inclusion of a PVA barrier layer provides a more controlled imaging element for the evaluation of dye sensitised photopolymerisation than the composite of the previous Example.

[2] = Sensitisation of acrylate polymerisation: tungsten light exposure of laminate, acetone development (Example 4); conditions: coating; for Acetone Solubility After Exposure: after exposure to 250W tungsten light source for 30 seconds
Method: The ability of Dye C of the invention and Control Dyes 1 and 2 to sensitise acrylate polymerisation was evaluated by the following protocol.
A solution of Dye C (0.lg), pentaerythritol tetraacrylate monomer (0.6g), commercially available from Ancomer Chemicals under the trade designation ATM 11, 4-butoxyphenyl phenyl iodonium trifluoroacetate (0.125g) shown below as IOD J, and poly(vinyl butyral) (Butvar B-76) (0.6 g), was made in butanone (95 g) in conditions of diminished light. [drawing 30]
The solution was coated onto 0.01 cm unsubbed poly(ethylene terephthalate) (PET) base at a wet thickness of 24μm and dried. A laminate was prepared by covering the monomer coating with a second 0.01 cm PET sheet by cold pressure rolling. The laminate was imagewise exposed to a 250W tungsten light source for 30 seconds using the stage of an overhead projector. […] Stripping of the cover sheet was more readily completed in exposed areas, whereas, in unexposed areas the monomer coatings partially adhered to the cover sheet. The latent image was developed by immersion in acetone, wherein exposed areas remained adhered to the PET base and unexposed areas were rapidly dissolved to obtain a relief image.

[3] = Dye stability on storage in light-tight envelope at room temperature; assay type: physicochemical; conditions: for Loss of optical density after storage (thermal bleaching): Example 5 coating, 24 hour storage, light-tight envelope; for Loss of optical density after storage (thermal bleaching) / Loss of dye density during storage / Dye Stability: OD at Day 0 / Dye Stability: OD at Day 7: room temperature; for Loss of dye density during storage: less than 24 hours; for Dye Stability: OD at Day 0 / Dye Stability: OD at Day 7: lighttight envelope
Method: However, both Control Dyes 1 and 2 are readily bleached during storage with an 80% loss of dye density in less than 24 hours. Thus the dyes of the invention show increased stability compared with the control dyes.
*Storage is conducted in a lighttight envelope at room temperature.

Row | Structure (SMILES) | Absorption maximum in coating ([1]; dried coating of Example 5) [nm] | OD at the absorption maximum ([1]; dried coating of Example 5, at 803 nm) | Acetone Solubility After Exposure [2] | Acetone Solubility Before Exposure [2] | λmax [1] [nm] | Loss of optical density after storage (thermal bleaching) [3] | Loss of dye density during storage ([3]; laminate) [%] | Dye Stability: OD at Day 0 [3] | Dye Stability: OD at Day 7 [3] | Imaging characteristics after storage ([3]; laminate, light tight envelope, 7 days, room temperature prior to exposure)
1 | N#CC(C#N)=C1C(=CC=CC=CC2=C(O)c3ccccc3C2=C(C#N)C#N)C(=O)c2ccccc21 [Dye B] | 803 | 0.39 | – | – | – | – | – | – | – | –
2 | O=C1C(=CC=CC=CC=CC2=C(O)c3ccccc3C2=O)C(=O)c2ccccc21 [Control Dye 2] | – | – | Yes | Yes | 760 | lost substantially all optical density | 80 | 1.5 | 0.1 | –
3 | N#CC(C#N)=C1C(=CC=CC=CC2=C(O)c3c(cccc3[N+](=O)[O-])C2=C(C#N)C#N)C(=O)c2c1cccc2[N+](=O)[O-] [Dye C] | – | – | No | Yes | 815 | – | – | 0.8 | 0.8 | unchanged imaging characteristics
4 | CCOC(=O)C(C#N)=CC=CC=CC=CC(C#N)=C(O)OCC [Control Dye 1] | – | – | Yes | Yes | 650 | lost substantially all optical density | 80 | 1.3 | 0.1 | –
